The source of these data is patent US5198552A, “Indole derivative having antiviral, interferon-inducing and immunomodulatory effects” (priority 1991, dated 1993).

The test system of data set [1] is interferon. The following applies: cell culture; cited from earlier work.
Another data set relates to peritoneal macrophages. Kind of data set: Absorbing capacity of mouse peritoneal macrophages (neutral red). In kind it is in vivo, mice.
In data set [2] the test system is interferon. Particulars: human blood serum; cited from earlier work.
For data set [3] the following is noted: cited from earlier work.
In a further data set the test system is antibody-producing cells. Kind of data set: Antibody-producing cells in the spleen of mice immunized with sheep erythrocytes. In kind it is in vivo.
For data set [4], the system named is interferon. Particulars: mouse blood serum; cited from earlier work.
In the next data set the test system is stem cells. Briefly: Inactivation of stem cells with allogenic lymphocytes (graft versus host, spleen endocolonies). It is filed as in vivo, mice.
For the next data set, the system named is influenza A virus. Briefly: Activity against influenza A virus. It is filed as cell-based.
The next data set has as its system influenza B virus. Kind of data set: Activity against influenza B virus. Particulars: hydrochloride. It is filed as cell-based. The procedure: The antiviral effect of the preparation against influenza A/B viruses was tested on a hen embryo fabroblast cell culture.
The test system of data set [5] is influenza A/B viruses. Briefly: Medicinal effect on experimental influenzal pneumonia of mice induced by influenza A/B viruses. In kind it is in vivo.
The conditions of data set [6]: in vivo; cited from earlier work.
A short description of data set [7]: Maximum tolerable concentration for chick embryo fibroblasts. In kind it is cell-based. Particulars: chicken.
A further data set deals with influenza viruses. Briefly: Virucidal action on influenza viruses.
Another data set in a line: in vivo. The following applies: mouse, po.
Data set [8] deals with influenza A/B viruses. In kind it is cell-based.
Setting [9] is: 1 day after single administration.
The mark [10] stands for this setting: 2 day after single administration.
Setting [11] is: 3 day after single administration.

Structures can show the parent of a compound that is named as a salt. Where two headings read alike, the source gives them in different places.

Regarding `c1ccc([C@H]2CN3CCSC3=N2)cc1` [Levamisole, (-) 2,3,5,6,-tetrahydro-6-phenylimidazo-/2.1.b/-thiazole hydrochloride, reference compound], the results for the interferon titers in the data set with interferon [1], in the data set with interferon [2] and with interferon [4] were 80-160 U/ml, 40-80 U/ml and 160-320 U/ml, respectively. Also, the “Absorbing Capacity of Peritoneal Macrophages” value in the data set with peritoneal macrophages (setting [9]) amounted to 24.2 ± 4.5 mg/6 × 10^6 cells; in the data set with peritoneal macrophages (setting [10]), 27.7 ± 3.2 mg/6 × 10^6 cells; in the data set with peritoneal macrophages (setting [11]), 32.5 ± 2.4 mg/6 × 10^6 cells. In addition, the entries for the “Absorbing Capacity, percent of control” value with peritoneal macrophages (setting [9]), in the data set on peritoneal macrophages (setting [10]) and in the data set on peritoneal macrophages (setting [11]) were 116 ± 21%, 121 ± 14% and 135 ± 9.9%, respectively. In addition, the “absorbing capacity of macrophages” value in the data set on peritoneal macrophages (by 2-3 days after a single administration, p<0.05) stood at 138±11%. For the same compound, the “effect on counts of macrophages washed off the peritoneal cavity” value in the data set with peritoneal macrophages (mouse, in vivo) is on record as “no effect on counts of macrophages”. The side-effects result in [3] (in vivo) is “a headache, sleep disturbances, olfactory hallicinations (odour changes), allergic skin hypersensitivity, influenza-like and neurologic symptoms”. In addition, the toxicity entry in [3] (in vivo) was “highly toxic”. For the same compound, the “agranulocytosis: decrease of neutrophile to a value” in data set [3] (treatment as an immunomodulator) is recorded as “below 25%”. Moreover, the “immunopotentiating effect on tumor-carrier animals” value in the data set with antibody-producing cells (7-17 day of tumor development, single (3 days prior to immunization) or 5-times daily) is given as “inefficient”. The “Antibody-producing cells in spleen (% of control)” value with antibody-producing cells (intact mice, 5 times at a 5-day interval) is listed as 170 ± 15.1%; in the data set with antibody-producing cells (intact mice, during 3 days, daily), 164 ± 6.1%; with antibody-producing cells (totally irradiated (2 Gr.), 5 times at a 5-day interval), 104 ± 6.0%; in the data set with antibody-producing cells (totally irradiated (2 Gr.), during 3 days, daily), 174 ± 24.0%; with antibody-producing cells (totally irradiated tumor-carriers (2 Gr.), 5 times at a 5-day interval), 402 ± 12.5%; with antibody-producing cells (totally irradiated tumor-carriers (2 Gr.), during 3 days, daily), 86.0 ± 35.0%. Besides, the “Antibody-producing cells in spleen (% of control)” value in the data set on antibody-producing cells (tumor-carriers, 5 times at a 5-day interval) was determined as 91 ± 14.0%; with antibody-producing cells (tumor-carriers, during 3 days, daily) it was 14 ± 23.0%. For the same compound, the “immunostimulating effect on irradiated animals” value with antibody-producing cells (irradiated animals) is given as “of low efficacy”. Moreover, the “immunopotentiating effect on totally irradiated tumor-carrier animals” value in the data set with antibody-producing cells (totally irradiated tumor-carriers) was “also had the immunopotentiating effect”. Also, the “The counts of spleen endocolonies (M ± m)” value was 2.3 ± 0.5 with stem cells (1.25 × 10^6 lymphocytes); 1.1 ± 0.2 with stem cells (2.5 × 10^6 lymphocytes); 0.7 ± 0.2 in the data set with stem cells (5.0 × 10^6 lymphocytes); 1.1 ± 0.3 with stem cells (no lymphocytes given, hydrochloride); “somewhat decreases the yield of the spleen colonies” with stem cells (no lymphocytes given, listed as levamisole, hydrochloride). In addition, the “effect on yield of spleen colonies under graft versus host conditions” value in the data set with stem cells (preparation 100 mg per 1 kg orally, levamisole 5 mg per 1 kg) is recorded as “identical but a less pronounced effect”.
For the compound `CC(N)C12CC3CC(CC(C3)C1)C2` (stereo not shown) [Remantadine, alfa-methyl-1-adamantanemethylamine hydrochloride], the “efficacy against influenza A virus” value in the data set with influenza A virus was “efficient only against influenza A virus”. The “efficacy against influenza B virus” value in the data set on influenza B virus is given as “It is inefficient against”; in the data set on influenza B virus (listed as remantadine), “inefficient against influenza B virus”. In addition, the “medicinal (chemotherapeutical) effect on influenzal pneumonia” value with influenza A/B viruses [5] is “Exert a medicinal effect”. Besides, the side-effect entry in [6] is “side-effect on a central nervous system”. In addition, in data set [7], the MNTC was 20 µg/mL. In addition, the “virucidal action on influenza viruses” value in the data set on influenza viruses was “No virucidal action”. In the data set “in vivo”, this compound came in with a median lethal dose (LD50) of 340 mg/kg. Further, the “inhibition of influenza A/B virus reproduction / chemotherapeutical effect” value with influenza A/B viruses [8] is listed as “Inhibits the reproduc-”.
